Article PMC8876931, “Pharmacokinetic, Metabolomic, and Stability Assessment of Ganoderic Acid H Based Triterpenoid Enriched Fraction of Ganoderma lucidum P. Karst” (Metabolites, 2022)

Experiments:
[1] = In vivo pattern recognition of TEF: UPLC–MS metabolic profiling of blood after oral administration; set-up: species or system rats; settings: for bioavailability (absorbed in systemic circulation) of TEF constituent: after oral administration of TEF to rats, in words; for Metabolites Pattern in TEF and Blood (Abundance): UPLC–MS abundance of mass
Method: For in vivo pattern recognition of TEF, it was orally administered to rats. After its oral administration, blood samples were collected at different time intervals. Prepared plasma samples of pharmacokinetic analysis (0.5, 1, 3, 6, 12, 24, 48, and 72 h) were used for this study. Samples were analyzed by ultra-performance liquid chromatography–mass spectrometry (UPLC–MS) analysis. The UPLC–MS was performed on Water’s ACQUITY UPLCTM system (Waters Corp., Milford, MA, USA) equipped with a binary solvent delivery system, an autosampler, column manager, and a tunable MS detector (Synapt; Waters, Manchester, UK). Chromatographic separation was performed on a Water’s ACQUITY UPLC^TM BEH C18 (100.0 × 2.1 mm × 1.7 μm) column. The mobile phase used for chromatographic separation was 0.05% (v/v) formic acid in water (A) and 0.05% (v/v) formic acid in acetonitrile (B). […] The flow rate of mobile phase was 0.5 mL/min, and column temperature was set at 25 °C throughout the run time. The mass spectrometry was performed on a quadrupole orthogonal acceleration time of flight tandem mass spectrometer (Waters Q-TOF, Manchester, UK). The nebulizer gas was set to 500 L/h, the cone gas was set to 50 L/h, and the source temperature was set to 100 °C. The capillary voltage was set to 3.0 kV, and the sample cone voltage was set to […]. Argon was employed as the collision gas at a pressure of 5.3 × 10^−5 Torr. The Q-TOF was operated in positive mode with […] and 0.02 s inter-scan delay. The accurate mass and composition for the precursor ions and the fragment ions were calculated by using MassLynx v 4.1 software incorporated with the instrument. Compounds were tentatively identified from database by comparing their reported m/z values with experimental values. Focus was given to the mass ranges from 130 to 600 m/z for lanosterol type triterpenoids and general terpene hydrocarbon. The databases used for identification of compounds were MassBank and HMDB.
Metabolomic comparison was performed with respect to analysis of TEF. For that, dried TEF was dissolved in LC–MS grade methanol and analyzed with same conditions used for plasma sample analysis. […] This metabolomic analysis was based on metabolites absorbed in blood after oral administration.

breast cancer cells = tested on: breast cancer cells; set-up: method as in PMID 18425349; settings: by modulating AP-1 and NF-κB signaling; cited from earlier work
[2] = Pharmacokinetic analysis of TEF in terms of GA-H after oral administration to rats (HPLC of plasma and urine); assay type: in vivo, Albino Wistar rats; set-up: rate of elimination (Kel): unit not given here
Method: Alliance HPLC system (e2695 Separation module, Waters, Milford, MA, USA) with a gradient pump integrated with adjustable wavelength programmable photodiode array detector (PDA) was employed for analysis. Chromatographic separation was executed on Hupersil […] C18 (ODS) column (150 × 4.6 mm, Phenomenex, Torrance, CA, USA), using mobile phase composed of 0.5% v/v formic acid in water (A) and methanol (B). Solvents were eluted at a flow rate of 1.0 mL/min in gradient elution program (initially 100% A, 0–5 min 90% A, 5–10 min 70% A, 10–15 min 30% A, 15–20 min 2% A, and 20–22 min 100% A). Detection was carried out in a scanning mode with 3D channel at a wavelength of 254 nm. Total run time was 25 min. The identity of the compounds was established by comparing retention time of analytical standards. The proposed developed method was further validated as per the AOAC guidelines.
Albino Wistar rats (8 weeks old, 180 ± 20 g) were obtained from the Central Animal House Facility of Jamia Hamdard. Animal housing and handling were executed in accordance with the Good Laboratory Practice (GLP) mentioned in CPCSEA guidelines. All experimental protocols were reviewed and approved by the Institutional Animal Ethics Committee (Registration No 173/GO/RE/S/2000/CPCSEA; approval number 1472). All animals were housed in polypropylene cages (not more than three animals per cage) with proper water and feed and were allowed to acclimatize with specified conditions (25 ± 3 °C and 60 ± 5%RH) for a week before the experiment. […] After oral administration, blood samples were collected from retro-orbital plexus by using heparinized capillaries at 0 (pre-dose), 0.5, 1, 1.5, 2, 4, 6, 8, 10, 12, 16, 24, and 30 h. Blood samples were collected in EDTA tubes and centrifuged at 7000 rpm to get plasma. The separated plasma was stored at −60 °C until analysis. […] The collected urine from each animal was pooled for analysis.
Liquid–liquid extraction was used for extraction of GA-H from plasma. In 100 µL of plasma, 500 µL of ice-cold methanol was added, vortexed, and incubated at −60 °C for 8 h. After incubation, it was brought to room temperature and centrifuged at 10,000 rpm for 10 min. The supernatant was separated and dried by passing […]. The dried extract was re-suspended with 100 μL of LC–MS grade methanol, sonicated for 10 min, centrifuged at 14,000 rpm for 10 min, supernatant separated, and then transferred into sample vials having insert for analysis. Similar sample preparation protocol and storage conditions were used for urine through liquid–liquid extraction.
The maximum plasma concentration (Cmax) and time to attain maximum concentration (Tmax) were directly assessed by plasma concentration–time graph. Other pharmacokinetic parameters, such as AUC, AUC0–t, AUC0–∞, half-life (t1/2), elimination rate constant (Kel), and volume of distribution (Vd), were calculated from plasma concentration vs. time profile response curve by non-compartmental analysis, using software Pkf Excel plug-in program.

[3] = blood 3 h after oral TEF to rats
[4] = blood 6 h after oral TEF to rats
[5] = blood 12 h after oral TEF to rats
[6] = blood 24 h after oral TEF to rats
[7] = blood 48 h after oral TEF to rats
[8] = blood 72 h after oral TEF to rats
[9] = blood 0.5 h after oral TEF to rats
[10] = blood 1 h after oral TEF to rats
[11] = Albino Wistar, rat, plasma, po, 85 mg/kg
[12] = GA-H in rat plasma after oral TEF 85 mg/Kg
[13] = GA-H, rats, oral TEF 85 mg/Kg, non-compartmental analysis

| SMILES | bioavailability (absorbed in systemic circulation) of TEF constituent [1] | Metabolites Pattern in TEF and Blood (Abundance) [1, 6] | Metabolites Pattern in TEF and Blood (Abundance) [1, 7] | Metabolites Pattern in TEF and Blood (Abundance) [1, 8] | Metabolites Pattern in TEF and Blood (Abundance) [1, 3] | Metabolites Pattern in TEF and Blood (Abundance) [1, 4] | Metabolites Pattern in TEF and Blood (Abundance) [1, 5] | Metabolites Pattern in TEF and Blood (Abundance) [1, 10] | effect on growth and invasive behavior of breast cancer cells (breast cancer cells) | other results |
| --- | --- | --- | --- | --- | --- | --- | --- | --- | --- | --- |
| CC(C)CCCCCCCCCCCC(=O)O [13-methylmyristic acid] | bioavailable | 16,734 | 9835 | 5642 | 23,412 | 25,473 | 21,675 |  |  |  |
| CC(=O)O[C@@H]1C(=O)C2=C(C(=O)C[C@H]3C(C)(C)C(=O)CC[C@]23C)[C@]2(C)C(=O)C[C@H]([C@H](C)CC(=O)CC(C)C(=O)O)[C@@]12C (some centres unmarked) [GA-F, ganoderic acid F] |  |  |  |  |  |  |  |  | suppress the growth and invasive behavior |  |
| CC(=O)O[C@@H]1C(=O)C2=C(C(=O)C[C@H]3C(C)(C)[C@@H](O)CC[C@]23C)[C@]2(C)C(=O)C[C@H]([C@H](C)CC(=O)CC(C)C(=O)O)[C@@]12C (some centres unmarked) [GA-H, ganoderic acid H] |  |  |  |  | 54,675 | 32,456 | 24,978 | 45,675 | suppress the growth and invasive behavior | Metabolites Pattern in TEF and Blood (Abundance) [1, 9]: 35,876; AUC(0-inf) [2, 11]: 9840 ± 157 ng·h/mL; AUC(0-t) [2, 11]: 9800 ± 170 ng·h/mL; half-life ([2]; Albino Wistar, rat, plasma, po, 85 mg/kg, read-out: half-life in blood (converted)): 13.2 h; Cmax ([2]; Albino Wistar, rat, plasma, po, 85 mg/kg, read-out: maximum plasma concentration (Cmax)): 2510 ng/mL; MRT ([2]; Albino Wistar, rat, plasma, po, 85 mg/kg, read-out: mean residence time in blood): 5.42 h; relative exposure AUC0–∞/D [2, 12]: 1968.9 ± 32.5 ng·h/mL/mg; relative exposure Cmax/D [2, 12]: 501.9 ± 25.4 ng/mL/mg; time to peak plasma concentration (Tmax) [2, 12]: approximately one; time up to which a quantifiable amount was sustained in plasma ([2]; GA-H, rats, oral TEF): up to 12 h; rate of elimination (Kel) ([2]; GA-H, rats, oral TEF 85 mg/Kg): 0.05; clearance (CL) [2, 13]: 507.9 ± 25.6 mL/h; volume of distribution (Vd) [2, 13]: 9660.3 ± 111.5 mL; detection in urine ([2]; rat urine collected at 4, 12 and 24 h after oral TEF, pooled): no GA-H was detected |
| C[C@H](CC(=O)C[C@@H](C)[C@H]1C[C@H](O)[C@@]2(C)C3=C(C(=O)C[C@]12C)[C@@]1(C)CCC(=O)C(C)(C)[C@@H]1C[C@@H]3O)C(=O)O [Ganoderic acid A] | bioavailable | 21,548 |  |  | 37,652 | 29,143 | 22,987 | 45,647 | suppress the growth and invasive behavior |  |
| CC(CC(=O)C[C@@H](C)[C@H]1CC(=O)[C@@]2(C)C3=C(C(=O)C[C@]12C)[C@@]1(C)CCC(=O)C(C)(C)[C@@H]1C[C@@H]3O)C(=O)O (some centres unmarked) [Ganoderic acid D] |  | 21,234 |  |  | 37,654 | 27,689 | 26,657 | 36,786 |  |  |

Now from value to compound, other results behind:

| bioavailability (absorbed in systemic circulation) of TEF constituent [1] | Metabolites Pattern in TEF and Blood (Abundance) [1, 6] | Metabolites Pattern in TEF and Blood (Abundance) [1, 7] | Metabolites Pattern in TEF and Blood (Abundance) [1, 8] | SMILES | Metabolites Pattern in TEF and Blood (Abundance) [1, 3] | Metabolites Pattern in TEF and Blood (Abundance) [1, 4] | Metabolites Pattern in TEF and Blood (Abundance) [1, 5] | Metabolites Pattern in TEF and Blood (Abundance) [1, 10] | effect on growth and invasive behavior of breast cancer cells (breast cancer cells) | other results |
| --- | --- | --- | --- | --- | --- | --- | --- | --- | --- | --- |
| bioavailable | 21,324 | 24,569 | 22,345 | OC[C@H]1OC(c2c(O)cc3c(c2O)C[C@@H](O)[C@@H](c2ccc(O)c(O)c2)O3)[C@H](O)[C@@H](O)[C@@H]1O (some centres unmarked) [Epicatechin-6-glucoside] | 25,056 | 26,578 | 22,346 | 36,783 |  | Metabolites Pattern in TEF and Blood (Abundance) [1, 9]: 19,876 |
| absorbed in the systemic circulation |  |  |  | NC(=O)CC[C@H](N=C/C=C1/C=C(C(=O)O)N[C@H](C(=O)O)C1)C(=O)O [Glutamine-betaxanthin] |  |  |  |  |  |  |
| bioavailable | 12,112 | 8453 | 5641 | CCCCC/C=C\C/C=C\CCCCCCCC(=O)O [Linoleic acid] | 23,451 | 21,543 | 18,756 |  |  |  |
